Article PMC7034854, “Inter-species variation in monovalent anion substrate selectivity and inhibitor sensitivity in the sodium iodide symporter (NIS)” (PLoS ONE, 2020)

Assays:
[1] = target: T1, sodium iodide symporter (zNIS) (Danio rerio, UniProt A0AC58G7K6); assay: […]- uptake inhibition in transduced HeLa cells; format: cell-based
T1 construct: gene slc5a5; N-terminally HA-tagged NIS (601 residues, NP_001082860.1) expressed in HeLa cells
T1 sequence (A0AC58G7K6 1-601): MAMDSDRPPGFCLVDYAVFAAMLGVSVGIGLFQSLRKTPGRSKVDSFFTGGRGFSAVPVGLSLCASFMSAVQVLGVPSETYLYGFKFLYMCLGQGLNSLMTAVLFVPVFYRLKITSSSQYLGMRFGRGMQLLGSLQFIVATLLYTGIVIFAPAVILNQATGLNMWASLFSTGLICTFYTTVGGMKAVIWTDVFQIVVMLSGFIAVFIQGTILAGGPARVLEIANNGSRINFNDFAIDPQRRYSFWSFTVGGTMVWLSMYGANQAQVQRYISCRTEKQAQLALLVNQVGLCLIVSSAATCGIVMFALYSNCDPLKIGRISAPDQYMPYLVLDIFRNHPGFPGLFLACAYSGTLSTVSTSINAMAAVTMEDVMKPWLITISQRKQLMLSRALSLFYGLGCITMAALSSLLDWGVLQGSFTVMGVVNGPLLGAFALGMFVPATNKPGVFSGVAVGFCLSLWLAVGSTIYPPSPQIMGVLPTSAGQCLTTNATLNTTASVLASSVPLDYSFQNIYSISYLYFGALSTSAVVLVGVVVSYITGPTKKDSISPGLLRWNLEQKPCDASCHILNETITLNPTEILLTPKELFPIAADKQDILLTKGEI

[2] = target: T2, sodium iodide symporter (hNIS) (Homo sapiens, UniProt Q92911); assay: […]- uptake inhibition in transduced HeLa cells; format: cell-based
T2 construct: gene SLC5A5; N-terminally HA-tagged NIS (643 residues) expressed in HeLa cells
T2 sequence (Q92911 1-643): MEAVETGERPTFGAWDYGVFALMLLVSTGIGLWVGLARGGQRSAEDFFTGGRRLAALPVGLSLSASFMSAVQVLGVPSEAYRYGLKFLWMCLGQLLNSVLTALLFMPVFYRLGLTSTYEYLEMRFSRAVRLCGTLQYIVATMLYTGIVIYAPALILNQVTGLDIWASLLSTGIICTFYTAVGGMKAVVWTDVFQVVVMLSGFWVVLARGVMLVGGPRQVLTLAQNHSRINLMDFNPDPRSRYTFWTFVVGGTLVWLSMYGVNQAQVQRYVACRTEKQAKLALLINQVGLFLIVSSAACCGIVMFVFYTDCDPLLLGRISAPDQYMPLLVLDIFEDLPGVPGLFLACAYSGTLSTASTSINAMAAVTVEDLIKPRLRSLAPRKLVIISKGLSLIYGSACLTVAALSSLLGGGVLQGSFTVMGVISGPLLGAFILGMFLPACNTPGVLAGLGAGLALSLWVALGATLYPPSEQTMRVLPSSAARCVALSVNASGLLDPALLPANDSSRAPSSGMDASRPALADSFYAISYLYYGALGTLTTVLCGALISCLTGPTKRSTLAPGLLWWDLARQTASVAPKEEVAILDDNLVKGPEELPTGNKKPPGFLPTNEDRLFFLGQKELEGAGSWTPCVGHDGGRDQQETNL

[3] = target: T3, sodium iodide symporter (wNIS) (Balaenoptera acutorostrata, UniProt A0A384B8D1); assay: […]- uptake inhibition in transduced HeLa cells; format: cell-based
T3 construct: gene SLC5A5; N-terminally HA-tagged NIS (642 residues, XP_007195539.1) expressed in HeLa cells
T3 sequence (A0A384B8D1 1-642): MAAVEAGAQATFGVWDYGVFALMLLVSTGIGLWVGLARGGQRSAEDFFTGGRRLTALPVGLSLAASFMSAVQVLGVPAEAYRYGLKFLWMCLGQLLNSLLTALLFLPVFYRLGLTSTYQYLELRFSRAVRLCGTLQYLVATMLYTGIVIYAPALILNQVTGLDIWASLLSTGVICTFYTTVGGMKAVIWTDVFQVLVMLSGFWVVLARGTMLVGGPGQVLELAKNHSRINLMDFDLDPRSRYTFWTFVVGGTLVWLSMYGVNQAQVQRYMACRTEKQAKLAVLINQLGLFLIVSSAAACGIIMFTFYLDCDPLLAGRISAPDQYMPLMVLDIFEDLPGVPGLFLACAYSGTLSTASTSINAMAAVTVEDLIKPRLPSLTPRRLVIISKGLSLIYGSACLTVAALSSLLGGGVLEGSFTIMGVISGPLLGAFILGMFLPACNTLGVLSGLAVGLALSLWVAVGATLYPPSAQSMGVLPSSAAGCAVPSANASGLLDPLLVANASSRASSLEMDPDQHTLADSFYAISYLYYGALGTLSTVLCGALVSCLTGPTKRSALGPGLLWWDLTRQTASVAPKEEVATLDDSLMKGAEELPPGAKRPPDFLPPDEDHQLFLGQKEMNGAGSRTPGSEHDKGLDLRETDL

[4] = substrate: I; assay: iodide uptake kinetics (Km) in transduced HeLa cells; format: cell-based, Balaenoptera acutorostrata; settings: Na+
[5] = substrate: I; assay: as above; format: cell-based, Danio rerio; settings: Na+
Text: iodide uptake kinetics (Km) in transduced HeLa cells on sodium iodide symporter (zNIS) | zNIS binds to iodide with the greatest affinity of the proteins examined in this study

[6] = substrate: I; assay: as above; format: cell-based, Homo sapiens; settings: Na+

[O-][Cl+3]([O-])([O-])O [perchlorate]
IC50 [1]: 81 nM | IC50 [2]: 1570 nM | IC50 [3]: 4600 nM

B1: sodium iodide symporter (wNIS) (Balaenoptera acutorostrata) (protein)
chain: T3 sequence (A0A384B8D1 1-642)
notes: N-terminally HA-tagged NIS (642 residues, XP_007195539.1) expressed in HeLa cells
Km [4]: 30.04 µM

B2: sodium iodide symporter (zNIS) (Danio rerio) (protein)
chain: T1 sequence (A0AC58G7K6 1-601)
notes: N-terminally HA-tagged NIS (601 residues, NP_001082860.1) expressed in HeLa cells
Km [5]: 3.688 µM

B3: sodium iodide symporter (hNIS) (Homo sapiens) (protein)
chain: T2 sequence (Q92911 1-643)
notes: N-terminally HA-tagged NIS (643 residues) expressed in HeLa cells
Km [6]: 12.01 µM
